Reference: ChEMBL document CHEMBL5528066, “Discovery of Novel N-(Anthracen-9-ylmethyl) Benzamide Derivatives as ZNF207 Inhibitors Promising in Treating Glioma” (J Med Chem, 2024)
Calls of active or inactive are those of the source. The rule behind the calls is not given here.

How the values were obtained:
[1] = test system: Hs 683; test: Inhibition of sphere formation in human Hs 683 cells incubated for 168 hrs by microscopic analysis; type: functional, cell-based; details: Hs 683, 168 h
[2] = test system: U-251; test: Inhibition of sphere formation in human U-251MG cells at 4 uM measured after 10 days in well containing 1 cells by microscopic analysis; type: functional, cell-based; details: time 10.0 day
[3] = Toxicity in female C57BL/6 mouse assessed as change in cellular structure of heart at 45 mg/kg, po administered once a day for 2 weeks by H and E staining based analysis; type: organism-based; details: in vivo, 336 h
[4] = test system: H4; test: Inhibition of sphere formation in human H4 cells at 1 uM measured after 10 days in well containing 10 cells by microscopic analysis; type: functional, cell-based; details: time 10.0 day
[5] = test system: MKN-45; test: Antiproliferative activity against human MKN-45 cells assessed as inhibition of cell growth incubated for 72 hrs by CCK-8 assay; type: functional, cell-based; details: MKN-45, 72 h
[6] = test system: Hs 683; test: Inhibition of sphere formation in human Hs 683 cells at 1 uM measured after 10 days in well containing 1 cells by microscopic analysis; type: functional, cell-based; details: time 10.0 day
[7] = target: BUB3-interacting and GLEBS motif-containing protein ZNF207 (Homo sapiens, UniProt O43670); test: Binding affinity to ZNF207 in human U-251MG cells assessed as thermal stabilization by measuring increase in melting temperature at 30 uM incubated for 3 hrs by CETSA; type: cell-based
[8] = test system: LN-229; test: Antitumor activity against human LN-229 cells xenografted in BALB/c nude mouse assessed as reduction in proportion of p-H3 positive cells at 15 to 45 mg/kg, po administered once a day and measured after 49 days by immunohistochemistry analysis; type: functional, organism-based; details: dose 15-45 mg/kg, time 49.0 day
[9] = test system: H4; test: Inhibition of sphere formation in human H4 cells at 4 uM measured after 10 days in well containing 1 cells by microscopic analysis; type: functional, cell-based; details: time 10.0 day
[10] = Drug concentration in female Sprague-Dawley rat spleen at 45 mg/kg, po measured after 8 hrs by LC-MS/MS analysis; type: ADME, organism-based; details: read-out: Ct
[11] = test system: Hs 683; test: Inhibition of sphere formation in human Hs 683 cells at 8 uM measured after 10 days in well containing 10 cells by microscopic analysis; type: functional, cell-based; details: time 10.0 day
[12] = Drug concentration in male Sprague-Dawley rat liver at 45 mg/kg, po measured after 8 hrs by LC-MS/MS analysis; type: ADME, organism-based; details: read-out: Ct
[13] = Toxicity in male C57BL/6 mouse assessed as change in cellular structure of intestine at 45 mg/kg, po administered once a day for 2 weeks by H and E staining based analysis; type: organism-based; details: in vivo, 336 h
[14] = Drug concentration in male Sprague-Dawley rat stomach at 45 mg/kg, po measured after 8 hrs by LC-MS/MS analysis; type: ADME, organism-based; details: read-out: Ct
[15] = test system: H4; test: Inhibition of colony formation in human H4 cells assessed as reduction in colony area at 5 uM treated on day 1 and measured after 14 days by crystal violet staining based microscopic analysis relative to control; type: functional; details: H4, 336 h, time 14 day
[16] = test system: U-251; test: Inhibition of sphere formation in human U-251MG cells at 4 uM measured after 10 days in well containing 10000 cells by microscopic analysis; type: functional, cell-based; details: time 10.0 day
[17] = test system: Hs 683; test: Inhibition of sphere formation in human Hs 683 cells at 4 uM measured after 10 days in well containing 100 cells by microscopic analysis; type: functional, cell-based; details: time 10.0 day
[18] = test system: LN-229; test: Antitumor activity against human LN-229 cells xenografted in BALB/c nude mouse assessed as reduction in proportion of p-H3 positive cells at 150 mg/kg, ip administered twice a week and measured after 49 days by immunohistochemistry analysis; type: functional, organism-based; details: time 49.0 day
[19] = test system: LN-229; test: Inhibition of cell migration in human LN-229 cells assessed as reduction in wound closure ability at 5 uM measured after 24 hrs by wound healing assay relative to control; type: functional
[20] = test system: Hs 683; test: Inhibition of sphere formation in human Hs 683 cells assessed as fold reduction in sphere initiating frequency at 1 uM incubated for 10 days by microscopic analysis relative to control; type: functional; details: time 10 day
[21] = test system: U-251; test: Inhibition of sphere formation in human U-251MG cells at 2 uM measured after 10 days in well containing 1000 cells by microscopic analysis; type: functional, cell-based; details: time 10.0 day
[22] = test system: Hs 683; test: Induction of apoptosis in human Hs 683 cells at 1.25 uM incubated for 24 hrs by Annexin V-FITC/PI staining based flow cytometry analysis; type: functional, cell-based
[23] = Drug concentration in male Sprague-Dawley rat intestine at 45 mg/kg, po measured after 8 hrs by LC-MS/MS analysis; type: ADME, organism-based; details: read-out: Ct
[24] = test system: U-251; test: Inhibition of colony formation in human U-251MG cells assessed as reduction in number of cell clones treated on day 1 and measured after 14 days by crystal violet staining based microscopic analysis; type: functional; details: dose 0.625-5 µM, time 14.0 day
[25] = Drug concentration in male Sprague-Dawley rat heart at 45 mg/kg, po measured after 8 hrs by LC-MS/MS analysis; type: ADME, organism-based; details: read-out: Ct
[26] = Toxicity in male C57BL/6 mouse assessed as change in cellular structure of liver at 45 mg/kg, po administered once a day for 2 weeks by H and E staining based analysis; type: organism-based; details: in vivo, 336 h
[27] = test system: Hs 683; test: Inhibition of sphere formation in human Hs 683 cells at 8 uM measured after 10 days in well containing 100 cells by microscopic analysis; type: functional, cell-based; details: time 10.0 day
[28] = test system: U-251; test: Inhibition of colony formation in human U-251MG cells assessed as reduction in colony area at 2.5 uM treated on day 1 and measured after 14 days by crystal violet staining based microscopic analysis relative to control; type: functional; details: U-251, 336 h, time 14 day
[29] = test system: H4; test: Inhibition of sphere formation in human H4 cells at 4 uM measured after 10 days in well containing 100 cells by microscopic analysis; type: functional, cell-based; details: time 10.0 day
[30] = test system: MDR1; test: Apparent permeability across apical to basolateral side in MDCKII-MDR1 cells assessed as drug recovery at 1 uM incubated for 2 hrs by LC-MS/MS analysis; type: ADME, cell-based, Canis lupus familiaris; details: dog, MDCK-MDR1, read-out: Drug recovery
[31] = Toxicity in male C57BL/6 mouse assessed as change in cellular structure of lung at 45 mg/kg, po administered once a day for 2 weeks by H and E staining based analysis; type: organism-based; details: in vivo, 336 h
[32] = test system: Hs 683; test: Inhibition of sphere formation in human Hs 683 cells at 4 uM measured after 10 days in well containing 10 cells by microscopic analysis; type: functional, cell-based; details: time 10.0 day
[33] = test system: LN-229; test: Inhibition of sphere formation in human LN-229 cells at 4 uM measured after 10 days in well containing 1 cells by microscopic analysis; type: functional, cell-based; details: time 10.0 day
[34] = test system: U-251; test: Inhibition of sphere formation in human U-251MG cells assessed as fold reduction in sphere initiating frequency at 8 uM incubated for 10 days by microscopic analysis relative to control; type: functional; details: time 10 day
[35] = test system: U-251; test: Inhibition of sphere formation in human U-251MG cells at 8 uM measured after 10 days in well containing 100 cells by microscopic analysis; type: functional, cell-based; details: time 10.0 day
[36] = test system: U-251; test: Inhibition of sphere formation in human U-251MG cells at 8 uM measured after 10 days in well containing 10 cells by microscopic analysis; type: functional, cell-based; details: time 10.0 day
[37] = test system: H4; test: Inhibition of sphere formation in human H4 cells at 8 uM measured after 10 days in well containing 100 cells by microscopic analysis; type: functional, cell-based; details: time 10.0 day
[38] = test system: H4; test: Inhibition of sphere formation in human H4 cells at 2 uM measured after 10 days in well containing 10 cells by microscopic analysis; type: functional, cell-based; details: time 10.0 day

BUB3-interacting and GLEBS motif-containing protein ZNF207, sequence (O43670 whole entry): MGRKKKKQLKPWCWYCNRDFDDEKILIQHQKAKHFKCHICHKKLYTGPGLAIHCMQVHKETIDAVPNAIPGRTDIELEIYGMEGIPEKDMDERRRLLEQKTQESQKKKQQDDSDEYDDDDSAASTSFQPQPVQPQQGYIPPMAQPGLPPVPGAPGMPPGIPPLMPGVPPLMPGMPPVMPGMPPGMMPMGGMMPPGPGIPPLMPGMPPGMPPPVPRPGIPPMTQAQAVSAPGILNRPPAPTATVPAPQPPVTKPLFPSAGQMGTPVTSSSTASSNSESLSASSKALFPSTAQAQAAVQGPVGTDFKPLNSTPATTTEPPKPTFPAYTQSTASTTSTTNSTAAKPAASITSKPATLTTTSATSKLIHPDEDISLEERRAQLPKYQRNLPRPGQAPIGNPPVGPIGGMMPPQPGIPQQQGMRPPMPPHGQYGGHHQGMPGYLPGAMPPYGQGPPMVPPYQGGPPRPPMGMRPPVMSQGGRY

Compound: N#CC1(C(=O)NCCC2CCN(Cc3ccccc3)CC2)CC2(Br)c3ccccc3C1c1ccccc12 (racemic)
- IC50 [1]: 2100 nM
- inhibition [2]: Active
- Activity [3]: Non-Toxic
- inhibition [4]: Active
- IC50 [5]: 3840 nM
- inhibition [6]: Active
- ΔTm [7]: 5.2 °C
- Activity [8]: Active
- inhibition [9]: Active
- concentration at 8 h [10]: 2330 ng/g
- inhibition [11]: Active
- concentration at 8 h [12]: 779 ng/g
- Activity [13]: Non-Toxic
- concentration at 8 h [14]: 608 ng/g
- inhibition at 5 µM [15]: 100%
- inhibition [16]: inactive
- inhibition [17]: Active
- Activity [18]: Active
- inhibition at 5 µM [19]: 16.6%
- fold change (FC) [20]: 2.8
- inhibition [21]: inactive
- Activity [22]: Active
- concentration at 8 h [23]: 688 ng/g
- inhibition [24]: Dose-Dependent Effect
- concentration at 8 h [25]: 193 ng/g
- Activity [26]: Non-Toxic
- inhibition [27]: Active
- inhibition at 2.5 µM [28]: 100%
- inhibition [29]: Active
- recovery at 2 h, 1 µM [30]: 96%
- Activity [31]: Non-Toxic
- inhibition [32]: Active
- inhibition [33]: Active
- fold change (FC) [34]: 166
- inhibition [35]: Active
- inhibition [36]: Active
- inhibition [37]: Active
- inhibition [38]: Active
